# Measurements from patent US20260344668A1, “PHENYLPYRAZOLE COMPOUND, AND PLANT DISEASE CONTROL METHOD” (priority 2022, published 2026).
# How the values were obtained:
# [1] = test system: soybean rust fungus (Phakopsora pachyrhizi) having an amino acid substitution of F129L in a mitochondrial cytochrome b protein; experiment: Test Example 7 Control Test Against Soybean Rust (leaf disk); format: in vivo; settings: 200 ppm, 10 μL per soybean leaf disk (cultivar: Kurosengoku), inoculated after 1 day
# In short: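 Soybean (Kurosengoku) leaf disks of 1 cm on 1.2% agar were sprayed with compound in a DMSO/xylene/Sorpol emulsion diluted in water to a prescribed concentration. One day later they were spray-inoculated with F129L cytochrome b mutant P. pachyrhizi spores (1.0×10^5/mL) and kept at 23 °C, 60% humidity, 6 h light, for about 13 days. Lesion area was compared with DMSO-treated disks.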
# [2] = test system: Cochliobolus miyabeanus; experiment: Test Example 6 Control Test Against Rice Brown Spot Fungus (96 well titer plate growth); format: cell-based; settings: 1 μL of 150 ppm DMSO solution + 150 μL YB liquid medium, 23° C., 3 days, absorbance at 550 nm
# Description: (§1) The term of “non-treated well” in Test Example 4, Test Example 5, and Test Example 6 represents a well wherein a test was carried out under the same conditions as those described in each Test Example except for dispensing DMSO instead of a diluted solution with DMSO comprising the Present compound. Also, the term of “non-treated” in Test Examples 15 to 17 represents a test which was carried out under the same conditions as those described in each Test Example except for dispensing DMSO instead of a diluted solution with DMSO comprising the Present compound. Also, the term of “non-treated leaf disk” in Test Example 7 represents a leaf disk wherein a test was carried out under the same conditions as those described in the Test Example except for dispensing DMSO instead of a diluted solution with DMSO comprising the Present compound. Also, the term of “non-treated” in Test Example 10 and Test Example 11 means that a diluted solution with water of a formulation comprising the Present compound was not sprayed.
# Each of the Present compound 17, 33, 36, 37, 39, 40, 41, 42, 43, 44, 48, 49, 50, 51, 52, 53, 62, 68, 69, 70, 71, 76, 77, 79, 80, 81, 82, 83, 84, or 97 was diluted with DMSO to obtain a diluted solution containing 150 ppm of each compound, and 1 μL of the diluted solution was dispensed into a titer plate (96 well), and thereto was then dispensed 150 μL of a YB liquid medium to which spores of Cochliobolus miyabeanus were inoculated in advance. This plate was cultured at 23° C. for 3 days, thereby allowing Cochliobolus miyabeanus to undergo proliferation, and the absorbance at 550 nm of each well of the titer plate was then measured to determine a degree of growth of Cochliobolus miyabeanus. As a result, the degree of growth in the well treated with each of the above Present compounds was 50% or less relative to the degree of growth in the non-treated well.
# [3] = test system: Phakopsora pachyrhizi; experiment: Test Example 15 Control Test Against Soybean Rust Fungus (spore germination, 96 well titer plate); format: cell-based; settings: treatment concentration 1 ppm, 23° C., several hours
# In short: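 Compound in DMSO was added to an aqueous Phakopsora pachyrhizi spore suspension (1.0×10^4/mL) and incubated several hours at 23° C. Germinated spores were counted relative to DMSO-only wells.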
# [4] = test system: Phakopsora pachyrhizi; experiment: Test Example 11 Control Test Against Soybean Rust (pot test, spraying before inoculation); format: in vivo; settings: 200 ppm foliage spray, soybeans (Kurosengoku), inoculated after 2 to 5 days
# In short: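 Soybeans (cv. Kurosengoku), grown 10–14 days in pots, foliar-sprayed with formulated compound at 200 ppm, inoculated 2–5 days later with Phakopsora pachyrhizi spores. Kept humid 1–2 days at 23 °C day/20 °C night, then greenhouse 12 days; lesion area scored against unsprayed plants.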
# [5] = test system: Cladosporium carpophilum; experiment: Test Example 5 Control Test Against Peach Scab Fungus (96 well titer plate growth); format: cell-based; settings: 1 μL of 150 ppm DMSO solution + 150 μL PDB medium, 18° C., 5 days, absorbance at 550 nm
# Description: as §1
# Each of the Present compound 79, 80, 81, 89, 92, 93, 96, or 99 was diluted with DMSO to obtain a diluted solution containing 150 ppm of each compound, and 1 μL of the diluted solution was dispensed into a titer plate (96 well), and thereto was then dispensed 150 μL of a potato dextrose broth medium (PDB medium) to which spores of Cladosporium carpophilum were inoculated in advance. This plate was cultured at 18° C. for 5 days, thereby allowing Cladosporium carpophilum to undergo proliferation, and the absorbance at 550 nm of each well of the titer plate was then measured to determine a degree of growth of Cladosporium carpophilum. As a result, the degree of growth in the well treated with each of the above Present compound was 50% or less relative to the degree of growth in the non-treated well.
# [6] = test system: Phakopsora pachyrhizi; experiment: Test Example 16 Control Test Against Soybean Rust Fungus (spore germination, petri dish); format: cell-based; settings: treatment concentration 10 ppm, 23° C., 1 day
# Description: as §1
# An agar medium (agar concentration: 1.0%) (3 mL) was placed in a plastic petri dish having a diameter of 3.5 cm, and solidified. Each Present compound was diluted with DMSO in such a way that the resulting diluted solution containing 10000 ppm of the compound, and said solution (1 μL) and an aqueous suspension (1.0×10^4/mL) (999 μL) of spores of Phakopsora pachyrhizi to which spores of Phakopsora pachyrhizi were suspended were mixed, and then the resulting mixture was dispensed into the plastic petri dish. This plastic petri dish was cultured at 23° C. for 1 day, and then germinated spores of Phakopsora pachyrhizi were counted. As a result, when the treatment concentration was 10 ppm, and any one of the Present compound 9, 10, 28, 29, or 32 was used as the test compound to carry out the test, the number of germinated spores in each plastic petri dish using the above each Present compound as the test compound was 50% or less relative to the number of germinated spores in the non-treated plastic petri dish.
Compound,lesion area relative to the lesion area of non-treated leaf disk [1] [%],degree of growth relative to the degree of growth in the non-treated well [2] [%],number of germinated spores relative to the non-treated well [3] [%],lesion area relative to the lesion area in the non-treated soybeans [4] [%],degree of growth relative to the degree of growth in the non-treated well [5] [%],number of germinated spores relative to the non-treated plastic petri dish [6] [%]
O=S(=O)(c1cccs1)n1ccc(-c2ccc(Cl)cc2)n1 [compound 81],≤ 30,≤ 50,≤ 50,≤ 30,≤ 50,
Cn1cnc(S(=O)(=O)n2ccc(-c3cc(F)c(Br)c(F)c3)n2)c1 [compound 32],≤ 30,,,,,≤ 50
Cc1ccc(S(=O)(=O)n2ccc(-c3cccc(F)c3)n2)cc1 [compound 28],,,,,,≤ 50
O=S(=O)(c1ccco1)n1ccc(-c2ccc(Cl)cc2)n1 [compound 79],≤ 30,≤ 50,≤ 50,≤ 30,≤ 50,
Cc1ccc(S(=O)(=O)n2ccc(-c3ccc(F)cc3)n2)cc1 [compound 29],,,,,,≤ 50
O=S(=O)(c1ccoc1)n1ccc(-c2ccc(F)cc2)n1 [compound 89],≤ 30,,≤ 50,≤ 30,≤ 50,
O=S(=O)(c1cccs1)n1ccc(-c2ccc(Br)c(F)c2)n1 [compound 40],≤ 30,≤ 50,≤ 50,≤ 30,,
Cc1ccc(-c2ccn(S(=O)(=O)c3cccnc3)n2)cc1 [compound 99],≤ 30,,≤ 50,≤ 30,≤ 50,
O=S(=O)(c1cccs1)n1ccc(-c2cccc(F)c2)n1 [compound 96],≤ 30,,≤ 50,≤ 30,≤ 50,
O=S(=O)(c1cccs1)n1ccc(-c2ccc(I)cc2)n1 [compound 84],≤ 30,≤ 50,≤ 50,≤ 30,,
O=S(=O)(c1cccs1)n1ccc(-c2ccc(C3CC3)cc2)n1 [compound 42],≤ 30,≤ 50,≤ 50,≤ 30,,
Cc1ccc(-c2ccn(S(=O)(=O)c3ccco3)n2)cc1F [compound 69],≤ 30,≤ 50,≤ 50,≤ 30,,
Cc1ccc(-c2ccn(S(=O)(=O)c3cccnc3)n2)cc1F [compound 97],≤ 30,≤ 50,≤ 50,≤ 30,,
Cc1ccc(-c2ccn(S(=O)(=O)c3cccs3)n2)cc1 [compound 43],≤ 30,≤ 50,≤ 50,≤ 30,,
O=S(=O)(c1cccs1)n1ccc(-c2cc(F)c(Br)c(F)c2)n1 [compound 33],≤ 30,≤ 50,≤ 50,≤ 30,,
O=S(=O)(c1ccoc1)n1ccc(-c2ccc(Cl)cc2)n1 [compound 80],≤ 30,≤ 50,≤ 50,≤ 30,≤ 50,
O=S(=O)(c1cccs1)n1ccc(-c2ccc3nsnc3c2)n1 [compound 68],≤ 30,≤ 50,≤ 50,≤ 30,,
O=S(=O)(c1ccoc1)n1ccc(-c2cc(F)c(Br)c(F)c2)n1 [compound 36],≤ 30,≤ 50,≤ 50,≤ 30,,
O=S(=O)(c1ccco1)n1ccc(-c2cc(F)c(Br)c(F)c2)n1 [compound 37],≤ 30,≤ 50,≤ 50,≤ 30,,
O=S(=O)(c1cccs1)n1ccc(-c2ccc(F)c(F)c2)n1 [compound 93],≤ 30,,≤ 50,≤ 30,≤ 50,
Cc1ccc(-c2ccn(S(=O)(=O)c3ccoc3)n2)cc1 [compound 77],≤ 30,≤ 50,≤ 50,≤ 30,,
O=S(=O)(c1ccoc1)n1ccc(-c2ccc(F)c(F)c2)n1 [compound 92],≤ 30,,≤ 50,≤ 30,≤ 50,
Cc1ccc(-c2ccn(S(=O)(=O)c3ccco3)n2)cc1 [compound 76],≤ 30,≤ 50,≤ 50,≤ 30,,
